According to publication PMC3465774, “Plant odorants interfere with detection of sex pheromone signals by male Heliothis virescens” (Frontiers in Cellular Neuroscience, 2012):

Target: T1, HR13 (Heliothis virescens, UniProt Q6A1K1)
T1 construct: stably expressed, tetracycline-induced, in Flp-In T-REx293/Galpha15 (HEK293) cells; no Orco mentioned
T1 sequence (Q6A1K1 1-425): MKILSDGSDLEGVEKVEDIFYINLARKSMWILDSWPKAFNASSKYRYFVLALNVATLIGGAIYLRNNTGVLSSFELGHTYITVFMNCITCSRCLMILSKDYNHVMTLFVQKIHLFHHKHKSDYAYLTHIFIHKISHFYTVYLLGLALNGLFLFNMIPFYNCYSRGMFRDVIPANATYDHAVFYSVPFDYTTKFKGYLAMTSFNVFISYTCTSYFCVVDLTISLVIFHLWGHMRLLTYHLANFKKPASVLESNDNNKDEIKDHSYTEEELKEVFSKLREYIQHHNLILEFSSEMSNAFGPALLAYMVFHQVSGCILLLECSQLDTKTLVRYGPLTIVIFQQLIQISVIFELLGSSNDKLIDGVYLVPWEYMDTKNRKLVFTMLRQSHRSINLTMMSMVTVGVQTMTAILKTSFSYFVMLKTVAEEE
Experiment: fura-2 calcium imaging, mixture with Z11-16:Ald
Type: cell-based
Settings: inhibitor of response to 1 nM Z11-16:Ald; no agonism at 100 nM; competitive or allosteric not resolved

C=CC(C)(O)CCC=C(C)C (stereo not shown) [linalool]
F/F0 of mixture (1, 10, 100 nM): linalool reduced the pheromone-induced calcium response of HR13 cells in a dose-dependent manner
